Results from US4308380A, “2-Lower alkyl-2 or 3-cephem-4-carboxylic acid derivatives” (Fujisawa Pharmaceutical Co., Ltd., priority 1973, dated 1981).
≈ marks a conversion by molar mass, not a printed value. Read-outs that look alike come from different tables or passages of the source.

Tests used:
E. coli 327 [1] = test: protecting effect against experimental infections in mice; format: in vivo, mice (male ICR strain); details: E. coli 327, intraperitoneal inoculation 8.5×10^2 cells/mouse, subcutaneous one hour after challenge, survival after one week, probit method
Procedure: The following test describes the method of estimating the protecting effects of Applicants' compound (18) versus cited […], "Keflex", against experimental infections in mice.
Male ICR strain mice aged 4 weeks, each weighing 20-23 g were used in groups of 8 mice. The organisms precultured overnight at 37° C. on HI-agar were suspended in 5% mucin solution to obtain cell concentrations of 8.5×10^2 cells/mouse. Mice were inoculated intraperitoneally with 0.5 ml of the suspension. Each of the test antibiotics was given subcutaneously to the mice one hour after challenge. The ED50 values were found by the probit method from the number of surviving mice after one week of observation.

[2] = tested on: Staphylococcus aureus 213; test: in vitro antimicrobial activity, two-fold agar plate dilution method, S. aureus 213; format: cell-based; details: Table 1, S. aureus 213, 37° C., 20 hours, read-out: minimum inhibitory concentration (MIC)
Procedure: (§1) The in vitro tests of antimicrobial activity of the compared compounds were determined by the two-fold agar plate dilution method described as follows: […]

[3] = tested on: Staphylococcus aureus 206; test: in vitro antimicrobial activity, two-fold agar plate dilution method, S. aureus 206; format: cell-based; details: Table 1, S. aureus 206, 37° C., 20 hours, read-out: minimum inhibitory concentration (MIC)
Procedure: as §1

[4] = tested on: Staphylococcus aureus 277; test: in vitro antimicrobial activity, two-fold agar plate dilution method, S. aureus 277; format: cell-based; details: Table 1, S. aureus 277, 37° C., 20 hours, read-out: minimum inhibitory concentration (MIC)
Procedure: as §1

[5] = tested on: Staphylococcus aureus 209 P JC-1; test: in vitro antimicrobial activity, two-fold agar-plate dilution method, S. aureus 209 P JC-1; format: cell-based; details: read-out: minimum inhibitory concentration (MIC)
Procedure: (§2) In vitro antimicrobial activity was determined by the two-fold agar-plate dilution method as described below.
(§3) One loopful of an overnight culture of each test strain in Trypticase-soy broth (10^8 viable cells per ml) was streaked on heart infusion agar (HI-agar) containing graded concentration of antibiotics, and the minimum inhibitory concentration (MIC) was expressed in terms of meg/ml after incubation at 37° C. for 20 hours.
(§4) The data in Table 1 below present a comparison between the 2-(C1 -C6 alkyl)-cephem compounds of the present invention and known cephem compounds structurally analogous to the present compounds, differing only by alkyl substitution in the 3-position. The in vitro tests of antimicrobial activity of the compared compounds were determined by the two-fold agar plate dilution method described as follows:
as §3, with “(HI sugar)” for “(HI-agar)”, “mcg/ml” for “meg/ml”

E. coli 327 [6] = test: in vitro MIC against E. coli 327 at different inoculum sizes (Table 2); format: cell-based
[7] = tested on: Bacillus subtilis ATCC-6633; test: in vitro antimicrobial activity, two-fold agar-plate dilution method, B. subtilis ATCC-6633; format: cell-based; details: read-out: minimum inhibitory concentration (MIC)
Procedure: as §2, §3, §4
as §3, with “(HI sugar)” for “(HI-agar)”, “mcg/ml” for “meg/ml”

[8] = tested on: Staphylococcus aureus 278; test: in vitro antimicrobial activity, two-fold agar plate dilution method, S. aureus 278; format: cell-based; details: Table 1, S. aureus 278, 37° C., 20 hours, read-out: minimum inhibitory concentration (MIC)
Procedure: as §1

[9] = tested on: Staphylococcus aureus 226; test: in vitro antimicrobial activity, two-fold agar plate dilution method, S. aureus 226; format: cell-based; details: Table 1, S. aureus 226, 37° C., 20 hours, read-out: minimum inhibitory concentration (MIC)
Procedure: as §1

[10] = 209PJC1, Table 1, S. aureus 209 P JC-1, 37° C., 20 hours
[11] = Escherichia coli, 327, E. coli 327, inoculum size 10^4
[12] = Escherichia coli, 327, E. coli 327, inoculum size 10^6
[13] = Escherichia coli, 327, E. coli 327, inoculum size 10^8
[14] = ATCC6633, Table 1, B. subtilis ATCC-6633, 37° C., 20 hours

Compound	MIC [2]	MIC [3]	MIC [4]	MIC [5, 10]	MIC [7, 14]	MIC [8]	MIC [9]	ED50 (E. coli 327 [1])	MIC (E. coli 327 [6]; [11])	MIC (E. coli 327 [6]; [12])	MIC (E. coli 327 [6]; [13])	MIC ([5]; 209PJC1, 20 h)	MIC ([7]; ATCC6633, 20 h)
CC1C=C(C(=O)O)N2C(=O)C(NC(=O)C(N)c3ccccc3)C2S1 (stereo not shown) [Applicants' compound (18), 2-Methyl-7-(2-phenylglycyl)-amino-3-cephem-4-carboxylic acid]	50 mg/L (≈ 144 µM)	12.5 mg/L (≈ 36 µM)	12.5 mg/L (≈ 36 µM)	6.25 mg/L (≈ 18 µM)	1.56 mg/L (≈ 4.49 µM)	25 mg/L (≈ 72 µM)	25 mg/L (≈ 72 µM)	0.25 mg/mouse	12.5 mg/L (≈ 36 µM)	50 mg/L (≈ 144 µM)	100 mg/L (≈ 288 µM)	–	–
CC1=C(C(=O)O)N2C(=O)C(NC(=O)Cc3ccccc3)[C@H]2SC1 (stereo partly shown) [cited compound (8), 3-Methyl-7-(2-phenylacetamido)-3-cephem-4-carboxylic acid, reference compound]	6.25 mg/L (≈ 18.8 µM)	6.25 mg/L (≈ 18.8 µM)	1.56 mg/L (≈ 4.69 µM)	–	–	3.13 mg/L (≈ 9.42 µM)	3.13 mg/L (≈ 9.42 µM)	–	–	–	–	1.56 mg/L (≈ 4.69 µM)	0.78 mg/L (≈ 2.35 µM)
CC1=C(C(=O)O)N2C(=O)C(NC(=O)CSc3nncs3)[C@H]2SC1 (stereo partly shown) [cited compound (11), 3-Methyl-7-[2-(1,3,4-thiadiazol-2-ylthio)acetamido]-3-cephem-4-carboxylic acid, reference compound]	6.25 mg/L (≈ 16.8 µM)	3.13 mg/L (≈ 8.4 µM)	6.25 mg/L (≈ 16.8 µM)	3.13 mg/L (≈ 8.4 µM)	1.56 mg/L (≈ 4.19 µM)	3.13 mg/L (≈ 8.4 µM)	6.25 mg/L (≈ 16.8 µM)	–	–	–	–	–	–
CC1=C(C(=O)O)N2C(=O)C(NC(=O)Cc3cnsn3)[C@H]2SC1 (stereo partly shown) [cited compound (12), 3-Methyl-7-[2-(1,2,5-thiadiazol-3-yl)acetamido]-3-cephem-4-carboxylic acid, reference compound]	25 mg/L (≈ 73.4 µM)	12.5 mg/L (≈ 36.7 µM)	25 mg/L (≈ 73.4 µM)	12.5 mg/L (≈ 36.7 µM)	3.13 mg/L (≈ 9.2 µM)	25 mg/L (≈ 73.4 µM)	25 mg/L (≈ 73.4 µM)	–	–	–	–	–	–
CC1=C(C(=O)O)N2C(=O)C(NC(=O)CC#N)[C@H]2SC1 (stereo partly shown) [cited compound (13), 3-Methyl-7-(2-cyanoacetamido)-3-cephem-4-carboxylic acid, reference compound]	12.5 mg/L (≈ 44.4 µM)	6.25 mg/L (≈ 22.2 µM)	12.5 mg/L (≈ 44.4 µM)	6.25 mg/L (≈ 22.2 µM)	3.13 mg/L (≈ 11.1 µM)	12.5 mg/L (≈ 44.4 µM)	12.5 mg/L (≈ 44.4 µM)	–	–	–	–	–	–
C=CCSCC(=O)NC1C(=O)N2C(C(=O)O)=C(C)CS[C@H]12 (stereo partly shown) [cited compound (14), 3-Methyl-7-[2-(allylthio)acetamido]-3-cephem-4-carboxylic acid, reference compound]	12.5 mg/L (≈ 38.1 µM)	6.25 mg/L (≈ 19 µM)	6.25 mg/L (≈ 19 µM)	6.25 mg/L (≈ 19 µM)	3.13 mg/L (≈ 9.53 µM)	6.25 mg/L (≈ 19 µM)	6.25 mg/L (≈ 19 µM)	–	–	–	–	–	–
CC1=C(C(=O)O)N2C(=O)C(NC(=O)Cc3cccnc3)[C@H]2SC1 (stereo partly shown) [cited compound (15), 3-Methyl-7-[2-(3-pyridyl)acetamido]-3-cephem-4-carboxylic acid, reference compound]	25 mg/L (≈ 75 µM)	12.5 mg/L (≈ 37.5 µM)	6.25 mg/L (≈ 18.7 µM)	6.25 mg/L (≈ 18.7 µM)	1.56 mg/L (≈ 4.68 µM)	12.5 mg/L (≈ 37.5 µM)	12.5 mg/L (≈ 37.5 µM)	–	–	–	–	–	–
CC1=C(C(=O)O)N2C(=O)C(NC(=O)C(N)c3ccccc3)[C@H]2SC1 (stereo partly shown) [cited compound (18), 3-Methyl-7-(2-phenylglycyl)amino-3-cephem-4-carboxylic acid, reference compound]	12.5 mg/L (≈ 36 µM)	6.25 mg/L (≈ 18 µM)	3.13 mg/L (≈ 9.01 µM)	–	–	3.13 mg/L (≈ 9.01 µM)	12.5 mg/L (≈ 36 µM)	1.06 mg/mouse	6.25 mg/L (≈ 18 µM)	12.5 mg/L (≈ 36 µM)	100 mg/L (≈ 288 µM)	3.13 mg/L (≈ 9.01 µM)	1.56 mg/L (≈ 4.49 µM)

The next lines start with results.

MIC [2]	MIC [3]	MIC [4]	MIC [5, 10]	MIC [7, 14]	MIC [8]	MIC [9]	Compound	ED50 (E. coli 327 [1])	MIC (E. coli 327 [6]; [11])	MIC (E. coli 327 [6]; [12])	MIC (E. coli 327 [6]; [13])	MIC ([5]; 209PJC1, 20 h)	MIC ([7]; ATCC6633, 20 h)
12.5 mg/L (≈ 36.9 µM)	3.13 mg/L (≈ 9.25 µM)	12.5 mg/L (≈ 36.9 µM)	3.13 mg/L (≈ 9.25 µM)	0.78 mg/L (≈ 2.3 µM)	6.25 mg/L (≈ 18.5 µM)	12.5 mg/L (≈ 36.9 µM)	CC1=C(C(=O)O)N2C(=O)C(NC(=O)Cc3cccs3)[C@H]2SC1 (stereo partly shown) [cited compound (5), 3-Methyl-7-[2-(2-thienyl)acetamido]-3-cephem-4-carboxylic acid, reference compound]	–	–	–	–	–	–
25 mg/L (≈ 71.8 µM)	12.5 mg/L (≈ 35.9 µM)	12.5 mg/L (≈ 35.9 µM)	3.13 mg/L (≈ 8.98 µM)	1.56 mg/L (≈ 4.48 µM)	12.5 mg/L (≈ 35.9 µM)	12.5 mg/L (≈ 35.9 µM)	CC1=C(C(=O)O)N2C(=O)C(NC(=O)C(O)c3ccccc3)[C@H]2SC1 (stereo partly shown) [cited compound (7), 3-Methyl-7-(2-hydroxy-2-phenylacetamido)-3-cephem-4-carboxylic acid, reference compound]	–	–	–	–	–	–
0.78 mg/L (≈ 2.14 µM)	0.39 mg/L (≈ 1.07 µM)	0.39 mg/L (≈ 1.07 µM)	0.39 mg/L (≈ 1.07 µM)	0.39 mg/L (≈ 1.07 µM)	0.39 mg/L (≈ 1.07 µM)	1.56 mg/L (≈ 4.28 µM)	CC1=C(C(=O)O)N2C(=O)C(NC(=O)CSc3ccccc3)C2SC1 (stereo not shown) [cited compound (9), 3-Methyl-7-(2-phenylthioacetamido)-3-cephem-4-carboxylic acid, reference compound]	–	–	–	–	–	–
